Here are results for two molecules from patent US8173169B2, “Formulation and process for the preparation of modafinil” (Hikma Pharmaceuticals, priority 2007, dated 2012).

Common to all, as to type: physicochemical
The nature of data set [1]: Sieve analysis of particle size distribution. Conditions: by weight retained. From the text: In using the Coulter Counter, particles suspended in a weak electrolyte solution are drawn through a small aperture, separating two electrodes between which an electric current flows. The voltage applied across the aperture creates a “sensing zone”. As particles pass through the aperture, they displace their own volume of electrolyte, momentarily increasing the impedance of the aperture. This change in impedance produces a pulse that is digitally processed in real time. The Coulter Principle states that the pulse is directly proportional to the tri-dimensional volume of the particle that produced it. […] Sieve sizing is one of the oldest methods used to determine particle size distributions. Samples of known weight are placed on the largest sieve in a stack of sieves of decreasing size. Upon shaking, sample fractions are caught on the respective sieve corresponding to the size of the particles.
Table 2 summarizes particle size distribution of Modafinil of the present invention measured by sieve size analysis.
(§1) Tables 1 and 2 summarize the particle size distribution of modafinil particles B#62605008s obtained by two different sizing methods. Values are reported in microns. The term d (0.1) denotes the diameter of the largest particle found in 10% of the particles sorted in increasing order. The other four terms refer to the diameter of the largest particle found in each 50%, 85%, 90% and 95% of the particles. The term SD denotes the standard deviation and is a measure of the spread of its values and the term RSD refers to the absolute value of the coefficient variation expressed as a percentage. In Table 2 the percentage by weight of particles retained on each mesh cut is reported.

Data set [2] can be described thus: Particle size analysis by laser diffraction (Malvern Mastersizer 2000).
From the text: As is appreciated by those in the art, different measurement instruments may provide different measurements of the same particles. […] Applicants have therefore performed modafinil particle size analysis using a Malvern Mastersizer 2000 (Worcestershire, UK), and a Coulter Counter (Hiac/Royco instruments, USA) and mechanical sieving methods.
Malvern Mastersizer utilizes the principle of laser diffraction particle sizing. The principle involved is that during the laser diffraction measurement, particles are passed through a focused laser beam and these particles scatter light at an angle that is inversely proportional to their size. The angular intensity of the scattered light is then measured by a series of photosensitive detectors and the map of scattering intensity versus angle is the primary source of information used to calculate the particle size.
Particle size measurements using the Hiac/Royco were generated on Modafinil particles of the present invention suspended in saturated water. For Malvern laser sizing, Modafinil particles can either be suspended in sunflower oil or sized in the dry form.
as §1

A short description of data set [3]: Dissolution rates of modafinil prepared by different formulation processes. An excerpt:
The choice of excipient is also shown to have a significant influence on the dissolution profiles.

[4] abbreviates: single trials 1-3, Malvern Mastersizer 2000.

Values joined by “and” are separate entries in the source; they are usually repeats but may differ in a detail not shown here. Equal values may be shown once.

Take `NC(=O)C[S+]([O-])C(c1ccccc1)c1ccccc1` (stereo not shown) [Modafinil B# 62605008s, Modafinil]: the “% Oversize” value in data set [1] (particle size range 0-150 μm) stood at 3.51%; in data set [1] (particle size range 150-180 μm) it was 1.25%; in data set [1] (particle size range 180-250 μm), 7.02%; in data set [1] (particle size range 250-355 μm), 52.88%; in data set [1] (particle size range 355-425 μm), 17.04%; in data set [1] (particle size range 425-500 μm), 12.78%. Also, the entries for the “% Oversize” value in data set [1] (particle size range 500-600 μm), in data set [1] (particle size range 600-800 μm) and in data set [1] (particle size range >800 μm) were 5.26%, 0.25% and 0.00%, respectively. Also, the “D (0.35) particle size (% undersize)” value in data set [2] (average of 3 trials) is 267.3 microns; in data set [2] (setting [4]), 273.94 microns and 266.93 microns and 261.04 microns. Moreover, the “d (0.1) particle size (% undersize)” value is 161.37 microns in data set [2] (average of 3 trials); 172.45 microns and 159.38 microns and 152.26 microns in data set [2] (setting [4]). For the same molecule, the “d (0.5) particle size (% undersize)” value was 322.59 microns in data set [2] (average of 3 trials); 328.58 microns and 322.53 microns and 316.66 microns in data set [2] (setting [4]). Further, the “d (0.85) particle size (% undersize)” value is 506.71 microns in data set [2] (average of 3 trials); 510.24 microns and 507.09 microns and 502.79 microns in data set [2] (setting [4]). The “d (0.9) particle size (% undersize)” value in data set [2] (average of 3 trials) was 557.46 microns; in data set [2] (setting [4]), 561.92 microns and 558.30 microns and 552.16 microns. The “d (0.95) particle size (% undersize)” value in data set [2] (average of 3 trials) was 631.82 microns; in data set [2] (setting [4]) it was 633.06 microns and 632.46 microns and 629.94 microns. The “share of particles greater than 220 um” value in data set [2] (conclusion from two sizing methods (Tables 1 and 2)) is recorded as “at least 65%”.
In the case of `NC(=O)C[S+]([O-])C(c1ccccc1)c1ccccc1` (stereo not shown) [Modafinil particles, Modafinil], the “% Modafinil Dissolved” value in data set [3] (5 mins) worked out at 1.80%; in data set [3] (10 mins), 5.19%; in data set [3] (15 mins) it was 9.73%; in data set [3] (20 mins), 14.31%; in data set [3] (30 mins), 23.19%; in data set [3] (40 mins), 31.25%. Also, the figures for the “% Modafinil Dissolved” value in data set [3] (60 mins) and in data set [3] (90 mins) were 44.09% and 71.42%, respectively. Also, in data set [3] (result in words), the “dissolution profile compared with PROVIGIL 200” value was “significantly slower”.
